Data from patent US20080039455A1, “PYRAZOLOPYRIMIDINES AND SALTS THEREOF, PHARMACEUTICAL COMPOSITIONS COMPRISING SAME, METHODS OF PREPARING SAME AND USES OF SAME” (priority 2006, published 2008).

These compounds were tested against T1, human recombinant ALK1 (GST fused to ALK1 intracellular domain [His142-Gln503]) (Homo sapiens, UniProt P37023) (assay: ALK1-Kinase Flashplate-Assay). Conditions: 0.5 μM ATP, biotinylated α-casein substrate; read-out: Assay 1 (ALK1-Kinase Flashplate-Assay IC50 class).
T1 construct: GST fused to ALK1 intracellular domain [His142-Gln503]; made in house
T1 sequence (P37023 142-503): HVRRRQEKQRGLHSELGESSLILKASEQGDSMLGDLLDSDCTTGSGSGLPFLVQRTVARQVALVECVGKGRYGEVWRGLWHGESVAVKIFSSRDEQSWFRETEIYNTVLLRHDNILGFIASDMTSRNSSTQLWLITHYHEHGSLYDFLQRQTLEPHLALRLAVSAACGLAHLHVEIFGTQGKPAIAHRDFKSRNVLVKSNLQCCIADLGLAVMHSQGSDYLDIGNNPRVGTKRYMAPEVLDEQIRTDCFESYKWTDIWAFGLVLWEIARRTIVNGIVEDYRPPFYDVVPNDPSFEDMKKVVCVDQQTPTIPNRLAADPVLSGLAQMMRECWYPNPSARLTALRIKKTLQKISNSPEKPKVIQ
Assay type: biochemical
Source text: Biological Assay 1: ALK1-Kinase Flashplate-Assay
ALK1 phosphorylates serine/threonine residues of the biotinylated substrate bovine α-casein in the presence of [γ-^33P]ATP. Detection of the radiolabeled phosphorylated product is achieved by binding to streptavidine-coated Flashplates. The biotin moieties of biotinylated casein bind with high affinity to the streptavidine. The radiolabeled biotinylated casein produced by the ALK1 kinase reaction is able to generate a […] signal when strepatavidine-mediated binding occurs to the scintillant-containing surface of the Flashplates due to the close proximity of the radiolabel and the scintillant. […] The signals obtained are therefore indicative of the ALK1 kinase activity. Measurement is performed in a Perkin-Elmer TopCount or Perkin-Elmer ViewLux instrument.
Enzyme: Purified human recombinant ALK1 (GST fused to ALK1 intracellular domain [His142-Gln503]) produced in-house, aliquots stored at −80° C.;
Diluted enzyme working solution: 2.5 ng/μl ALK1 (in assay buffer) freshly prepared and chilled on ice until use.
Substrate: biotinylated bovine α-casein. Unbiotinylated casein obtained from Sigma was biotinylated by standard procedures using N-hydroxysuccinimide (NHS) ester of biotin.
Substrate working solution: 0.83 μM ATP, 1.67 μM biotinylated a-casein, 7.4 nCi [γ-^33P]ATP/μl in assay buffer
Assay plates: 384-well plates, small volume, white, Greiner (# 784075)
Flashplates: Streptavidin-coated Flashplates, Perkin Elmer (384-well # SPM410A)
Assay buffer: 50 mM Tris/HCl pH 8.0, 1 mM MnCl2, 1 mM DTT, 0.01% NP40, 0.5× Complete EDTA-free
Stop solution: 33.3 μM ATP, 33.3 mM EDTA, 0.07% Triton X-100 in PBS
Saturating buffer for Flashplates: 100 μM ATP, 0.2% Triton X-100 in PBS
Sealing tape: Greiner (# 676080)
Protocol for small volume 5 μl assay (all steps are performed at 20° C., pipetted with CyBi-Well and Multidrop Micro): • 1. 50 nl or 250 nl compound in 100% DMSO • 2. addition of 3 μl substrate working solution with CyBi-Well pipettor • 3. addition of 2 μl enzyme working solution with Multidrop Micro incubation for 60 min at room temperature • 4. addition of 15 μl Stop solution with CyBi-Well pipettor • 5. transfer of 18 μl assay mixture to Flashplates** with CyBi-Well pipettor incubation for at least 3 h at room temperature or over night at 4° C. to allow binding to the streptavidine-coated Flashplates • 6. washing the Flashplates 3 times with 50 μl PBS without Ca++ and Mg++ • 7. sealing with sealing tape • 8. Measurement in Topcount (60 sec/well) **Saturation of Flashplates: The Flashplates are preincubated for at least 1 hour with 50 μl saturating buffer. Remove 18 μl from the 50 μl and transfer 18 μl of the assay mixture to the Flashplate.
Final concentrations, calculated for 5 μl reaction volume: ALK1 5 ng/well; 1 μM biotinylated α-casein; 0.5 μM ATP; 22 nCi/well [γ-^33P]ATP; 1 mM MnCl2; 1 mM DTT; 50 mM Tris-HCl; pH 8.0; 0.01% NP40; 0.5× Complete EDTA-free; 1% or 5% DMSO.
The data were normalised (enzyme reaction without inhibitor=0% inhibition, enzyme reaction in the presence of 10 mM EDTA=100% inhibition) and IC50 values were calculated by a 4 parameter fit using an in-house software.

IC50 [nM] | SMILES
< 1000 | CC(C)c1ccc(Nc2ccn3ncc(-c4cccc(C(=O)NCCN(C)C)c4)c3n2)cc1 [Example 1, N-(2-dimethylamino-ethyl)-3-[5-(4-isopropyl-phenylamino)-pyrazolo[1,5-a]pyrimidin-3-yl]-benzamide]
1000 to 10000 | COc1cc(Nc2ccn3ncc(-c4ccncc4)c3n2)cc(OC)c1OC [Example 4, (3-Pyridin-4-yl-pyrazolo[1,5-a]pyrimidin-5-yl)-(3,4,5-trimethoxy-phenyl)-amine]
1000 to 10000 | COc1ccc(Nc2ccn3ncc(-c4ccc(O)cc4)c3n2)cn1 [Example 13, 4-[5-(6-Methoxy-pyridin-3-ylamino)-pyrazolo[1,5-a]pyrimidin-3-yl]-phenol]
< 1000 | COc1ccc(-c2cnn3ccc(Nc4ccc5[nH]ccc5c4)nc23)cc1OC [Example 17, [3-(3,4-Dimethoxy-phenyl)-pyrazolo[1,5-a]pyrimidin-5-yl]-(1H-indol-5-yl)-amine]
1000 to 10000 | Oc1ccc(-c2cnn3ccc(Nc4ccc5[nH]ccc5c4)nc23)cc1 [Example 18, 4-[5-(1H-Indol-5-ylamino)-pyrazolo[1,5-a]pyrimidin-3-yl]-phenol]
< 1000 | CC(=O)Nc1cccc(-c2cnn3ccc(Nc4ccc5[nH]ccc5c4)nc23)c1 [Example 19, N-{3-[5-(1H-Indol-5-ylamino)-pyrazolo[1,5-a]pyrimidin-3-yl]-phenyl}-acetamide]
1000 to 10000 | Oc1ccc(-c2cnn3ccc(Nc4ccc(N5CCOCC5)cc4)nc23)cc1 [Example 28, 4-[5-(4-Morpholin-4-yl-phenylamino)-pyrazolo[1,5-a]pyrimidin-3-yl]-phenol]
1000 to 10000 | CC(=O)Nc1cccc(-c2cnn3ccc(Nc4ccc(N5CCOCC5)cc4)nc23)c1 [Example 29, N-{3-[5-(4-Morpholin-4-yl-phenylamino)-pyrazolo[1,5-a]pyrimidin-3-yl]-phenyl}-acetamide]
1000 to 10000 | COc1ccc(-c2cnn3ccc(Nc4ccc(Oc5ccccc5)cc4)nc23)cc1OC [Example 33, [3-(3,4-Dimethoxy-phenyl)-pyrazolo[1,5-a]pyrimidin-5-yl]-(4-phenoxy-phenyl)-amine]
1000 to 10000 | CC(C)c1ccc(Nc2ccn3ncc(-c4ccncc4)c3n2)cc1 [Example 36, (4-Isopropyl-phenyl)-(3-pyridin-4-yl-pyrazolo[1,5-a]pyrimidin-5-yl)-amine]
1000 to 10000 | COc1ccc(-c2cnn3ccc(Nc4ccc(C(C)C)cc4)nc23)cc1OC [Example 37, [3-(3,4-Dimethoxy-phenyl)-pyrazolo[1,5-a]pyrimidin-5-yl]-(4-isopropyl-phenyl)-amine]
1000 to 10000 | NC(=O)c1cccc(-c2cnn3ccc(Nc4ccc(Oc5ccccc5)cc4)nc23)c1 [Example 38, 3-[5-(4-Phenoxy-phenylamino)-pyrazolo[1,5-a]pyrimidin-3-yl]-benzamide]
1000 to 10000 | CS(=O)(=O)Nc1cccc(-c2cnn3ccc(Nc4ccc(Oc5ccccc5)cc4)nc23)c1 [Example 42, N-{3-[5-(4-Phenoxy-phenylamino)-pyrazolo[1,5-a]pyrimidin-3-yl]-phenyl}-methanesulfonamide]
1000 to 10000 | Oc1ccc(Nc2ccn3ncc(-c4ccc5c(c4)OCO5)c3n2)cc1 [Example 45, 4-(3-Benzo[1,3]dioxol-5-yl-pyrazolo[1,5-a]pyrimidin-5-ylamino)-phenol]
< 1000 | COc1ncc(-c2cnn3ccc(Nc4ccc(O)cc4)nc23)c(OC)n1 [Example 46, 4-[3-(2,4-Dimethoxy-pyrimidin-5-yl)-pyrazolo[1,5-a]pyrimidin-5-ylamino]-phenol]
< 1000 | Oc1ccc(Nc2ccn3ncc(-c4ccsc4)c3n2)cc1 [Example 48, 4-(3-Thiophen-3-yl-pyrazolo[1,5-a]pyrimidin-5-ylamino)-phenol]

IC50 [nM] | SMILES
< 1000 | Oc1ccc(Nc2ccn3ncc(-c4ccc(O)cc4)c3n2)cc1 [Example 49, 4-[5-[(4-hydroxyphenyl)amino]pyrazolo[1,5-a]pyrimidin-3-yl]-phenol]
< 1000 | CC(=O)Nc1cccc(-c2cnn3ccc(Nc4ccc(O)cc4)nc23)c1 [Example 50, N-{3-[5-(4-Hydroxy-phenylamino)-pyrazolo[1,5-a]pyrimidin-3-yl]-phenyl}-acetamide]
< 1000 | Cc1ccc(S(=O)(=O)Nc2ccc(Nc3ccn4ncc(-c5ccncc5)c4n3)cc2)cc1 [Example 51, 4-Methyl-N-[4-(3-pyridin-4-yl-pyrazolo[1,5-a]pyrimidin-5-ylamino)-phenyl]-benzenesulfonamide]
< 1000 | Cc1ccc(S(=O)(=O)Nc2ccc(Nc3ccn4ncc(-c5cccnc5)c4n3)cc2)cc1 [Example 52, 4-Methyl-N-[4-(3-pyridin-3-yl-pyrazolo[1,5-a]pyrimidin-5-ylamino)-phenyl]-benzenesulfonamide]
< 1000 | COc1ccc(-c2cnn3ccc(Nc4ccc(NS(=O)(=O)c5ccc(C)cc5)cc4)nc23)cc1OC [Example 56, N-{4-[3-(3,4-Dimethoxy-phenyl)-pyrazolo[1,5-a]pyrimidin-5-ylamino]-phenyl}-4-methyl-benzenesulfonamide]
< 1000 | Cc1ccc(Nc2ccn3ncc(-c4ccc(O)cc4)c3n2)cc1NS(C)(=O)=O [Example 60, N-{5-[3-(4-Hydroxy-phenyl)-pyrazolo[1,5-a]pyrimidin-5-ylamino]-2-methyl-phenyl}-methanesulfonamide]
< 1000 | c1cc(CNc2ccn3ncc(-c4ccc5c(c4)OCO5)c3n2)ccn1 [Example 61, (3-Benzo[1,3]dioxol-5-yl-pyrazolo[1,5-a]pyrimidin-5-yl)-pyridin-4-ylmethyl-amine]
< 1000 | c1cc(CNc2ccn3ncc(-c4ccsc4)c3n2)ccn1 [Example 63, Pyridin-4-ylmethyl-(3-thiophen-3-yl-pyrazolo[1,5-a]pyrimidin-5-yl)-amine]
< 1000 | c1ccc2sc(-c3cnn4ccc(NCc5ccncc5)nc34)cc2c1 [Example 64, (3-Benzo[b]thiophen-2-yl-pyrazolo[1,5-a]pyrimidin-5-yl)-pyridin-4-ylmethyl-amine]
< 1000 | COc1ccc(-c2cnn3ccc(NCc4ccncc4)nc23)cc1OC [Example 65, [3-(3,4-Dimethoxy-phenyl)-pyrazolo[1,5-a]pyrimidin-5-yl]-pyridin-4-ylmethyl-amine]
< 1000 | Oc1ccc(-c2cnn3ccc(NCc4ccncc4)nc23)cc1 [Example 66, 4-{5-[(Pyridin-4-ylmethyl)-amino]-pyrazolo[1,5-a]pyrimidin-3-yl}-phenol]
1000 to 10000 | OC1CCC(Nc2ccn3ncc(-c4cccnc4)c3n2)CC1 (stereo not shown) [Example 67, 4-(3-Pyridin-3-yl-pyrazolo[1,5-a]pyrimidin-5-ylamino)-cyclohexanol]
< 1000 | COc1ccc(-c2cnn3ccc(NC4CCC(O)CC4)nc23)cc1OC (stereo not shown) [Example 69, 4-[3-(3,4-Dimethoxy-phenyl)-pyrazolo[1,5-a]pyrimidin-5-ylamino]-cyclohexanol]
1000 to 10000 | OCCNc1ccn2ncc(-c3ccc4c(c3)OCO4)c2n1 [Example 70, 2-(3-Benzo[1,3]dioxol-5-yl-pyrazolo[1,5-a]pyrimidin-5-ylamino)-ethanol]
< 1000 | COc1ccc(-c2cnn3ccc(NCCO)nc23)cc1OC [Example 73, 2-[3-(3,4-Dimethoxy-phenyl)-pyrazolo[1,5-a]pyrimidin-5-ylamino]-ethanol]
